What was measured:
[1] = target: T1, human carbonic anhydrase II (hCA II) (Homo sapiens, UniProt P00918); experiment: hCA II inhibition assay (Maren method, CO2 hydration); type: biochemical; settings: purified human erythrocyte hCA II, CO2 as substrate
T1 construct: from tissue
Description: (§1) Blood samples (25 mL) were taken from healthy human volunteers. They were anticoagulated with acid-citrate-dextrose and centrifuged at 2000 g for 20 min at 4°C and the supernatant was removed. The packed erythrocytes were washed three times with 0.9% NaCl and then haemolysed in cold water. The ghosts and any intact cells were removed by centrifugation at 2000 g for 25 min at 4°C, and the pH of the haemolysate was adjusted to pH 8.5 with solid Tris-base. The 25 mL haemolysate was applied to an affinity column containing L-tyrosine-sulfonamide-sepharose-4B [21] equilibrated with 25 mM Tris-HCl/0.1 M Na2SO4 (pH 8.5). The affinity gel was washed with 50 mL of 25 mM Tris-HCl/22 mM Na2SO4 (pH 8.5). The hCA isozymes were then eluted with 0.1 M NaCl/25 mM Na2HPO4 (pH 6.3) and 0.1 M CH3COONa/0.5 M NaClO4 (pH 5.6), which recovered hCA I and hCA II, respectively. Fractions of 3 mL were collected and their absorbance was measured at 280 nm.
(§2) CA activity was measured by the Maren method which is based on determination of the time required for the pH to decrease from 10.0 to 7.4 due to CO2 hydration. The assay solution was 0.5 M Na2CO3/0.1 M NaHCO3 (pH 10.0) and Phenol Red was added as the pH indicator. CO2-hydratase activity (enzyme units (EU)) was calculated by using the equation t 0 − t c/t c, where t 0 and t c are the times for pH change of the nonenzymatic and the enzymatic reactions, respectively.
(§3) For the inhibition studies of indolylchalcone and pyrido[2,3-d]pyrimidine derivatives, different concentrations of these compounds were added to the enzyme. Activity percentage values of CA for different concentrations of each pyrimidine derivatives were determined by regression analysis using Microsoft Office 2000 Excel. CA enzyme activity without these compounds was accepted as 100% activity.

[2] = target: T2, human carbonic anhydrase I (hCA I) (Homo sapiens, UniProt P00915); experiment: hCA I inhibition assay (Maren method, CO2 hydration); type: biochemical; settings: purified human erythrocyte hCA I, CO2 as substrate
T2 construct: from tissue
T2 sequence (P00915 whole entry): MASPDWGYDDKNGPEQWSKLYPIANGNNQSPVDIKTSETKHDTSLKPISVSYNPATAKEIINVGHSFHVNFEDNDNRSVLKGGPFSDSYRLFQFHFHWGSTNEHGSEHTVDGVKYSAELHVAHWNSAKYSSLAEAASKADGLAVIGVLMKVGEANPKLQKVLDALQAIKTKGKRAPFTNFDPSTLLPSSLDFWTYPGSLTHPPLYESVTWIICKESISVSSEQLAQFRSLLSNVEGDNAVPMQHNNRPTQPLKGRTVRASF
Description: as §1, §2, §3

With `Cn1c(=O)c2c(-c3cn(C)c4ccccc34)cc(-c3ccccc3)nc2n(C)c1=O` [Compound 7i, 1,3-Dimethyl-5-(1-methyl-1H-indol-3-yl)-7-phenylpyrido[2,3-d]pyrimidine-2,4(1H,3H)-dione] the IC50 [1] was 8.14 µM, the melting point was 320 °C and the IC50 [2] was 8.72 µM.

For `Cn1cc(/C=C/C(=O)c2ccc(Cl)cc2)c2ccccc21` [Compound 5d, (E)-1-(4-Chlorophenyl)-3-(1-methyl-1H-indol-3-yl)prop-2-en-1-one], the IC50 [1] was 8.26 µM, the melting point was 248 °C and the IC50 [2] was 8.2 µM.

`Cn1cc(/C=C/C(=O)c2ccccc2)c2ccccc21` [Compound 5e, (E)-3-(1-Methyl-1H-indol-3-yl)-1-phenylprop-2-en-1-one] gave an IC50 [1] of 9.15 µM and an IC50 [2] of 12.8 µM.

Compound `Cc1ccc(-c2cc(-c3cn(C)c4ccccc34)c3c(=O)[nH]c(=O)n(C)c3n2)cc1` [Compound 7b, 1-Methyl-5-(1-methyl-1H-indol-3-yl)-7-p-tolylpyrido[2,3-d]pyrimidine-2,4(1H,3H)-dione] has an IC50 [1] of 12.1 µM, a melting point of 399 to 400 °C and an IC50 [2] of 11.6 µM.

In the case of `Cn1cc(-c2cc(-c3cccc([N+](=O)[O-])c3)nc3c2c(=O)[nH]c(=O)n3C)c2ccccc21` [Compound 7d, 1-Methyl-5-(1-methyl-1H-indol-3-yl)-7-(3-nitrophenyl)pyrido[2,3-d]pyrimidine-2,4(1H,3H)-dione], the IC50 [1] is reported as 13.7 µM, the melting point is reported as 397 °C and the IC50 [2] is reported as 12.1 µM.

In the case of `COc1ccc(C(=O)/C=C/c2cn(C)c3ccccc23)cc1OC` [Compound 5a, (E)-1-(3,4-Dimethoxyphenyl)-3-(1-methyl-1H-indol-3-yl) prop-2-en-1-one], the IC50 [1] is reported as 8.88 µM, the melting point is reported as 271 °C and the IC50 [2] is reported as 8.34 µM.

For `Cn1c(=O)c2c(-c3cn(C)c4ccccc34)cc(-c3cccc([N+](=O)[O-])c3)nc2n(C)c1=O` [Compound 7k, 1,3-Dimethyl-5-(1-methyl-1H-indol-3-yl)-7-(3-nitrophenyl)pyrido[2,3-d]pyrimidine-2,4(1H,3H)-dione], the IC50 [1] was 26.7 µM, the melting point was 349 to 350 °C and the IC50 [2] was 22.3 µM.

In the case of `COc1ccc(-c2cc(-c3cn(C)c4ccccc34)c3c(=O)[nH]c(=O)n(C)c3n2)cc1OC` [Compound 7a, 7-(3,4-Dimethoxyphenyl)-1-methyl-5-(1-methyl-1H-indol-3-yl)pyrido[2,3-d]pyrimidine-2,4(1H,3H)-dione], the IC50 [1] is reported as 19.4 µM, the melting point is reported as 333 to 334 °C and the IC50 [2] is reported as 16.3 µM.

In the case of `Cn1cc(/C=C/C(=O)c2cccc([N+](=O)[O-])c2)c2ccccc21` [Compound 5g, (E)-3-(1-Methyl-1H-indol-3-yl)-1-(3-nitrophenyl)prop-2-en-1-one], the IC50 [1] is reported as 7.22 µM, the melting point is reported as 267 °C and the IC50 [2] is reported as 8.38 µM.

`Cn1c(=O)c2c(-c3cn(C)c4ccccc34)cc(-c3ccc([N+](=O)[O-])cc3)nc2n(C)c1=O` [Compound 7j, 1,3-Dimethyl-5-(1-methyl-1H-indol-3-yl)-7-(4-nitrophenyl)pyrido[2,3-d]pyrimidine-2,4(1H,3H)-dione] showed an IC50 [1] of 9.56 µM, a melting point of 347 to 349 °C and an IC50 [2] of 10.2 µM.

`COc1ccc(-c2cc(-c3cn(C)c4ccccc34)c3c(=O)n(C)c(=O)n(C)c3n2)cc1` [Compound 7f, 7-(4-Methoxyphenyl)-1,3-dimethyl-5-(1-methyl-1H-indol-3-yl)pyrido[2,3-d]pyrimidine-2,4(1H,3H)-dione] showed an IC50 [1] of 25.4 µM, a melting point of 335.7 to 336 °C and an IC50 [2] of 26.2 µM.

With `Cc1ccc(-c2cc(-c3cn(C)c4ccccc34)c3c(=O)n(C)c(=O)n(C)c3n2)cc1` [Compound 7g, 1,3-Dimethyl-5-(1-methyl-1H-indol-3-yl)-7-p-tolylpyrido[2,3-d]pyrimidine-2,4(1H,3H)-dione] the IC50 [1] was 7.57 µM, the melting point was 340 to 341 °C and the IC50 [2] was 7.61 µM.

Compound `Cn1c(=O)c2c(-c3cn(C)c4ccccc34)cc(-c3ccc(Cl)cc3)nc2n(C)c1=O` [Compound 7h, 7-(4-Chlorophenyl)-1,3-dimethyl-5-(1-methyl-1H-indol-3-yl)pyrido[2,3-d]pyrimidine 2,4(1H,3H)-dione] has an IC50 [1] of 24.7 µM, a melting point of 358 to 359 °C and an IC50 [2] of 12.4 µM.

Compound `Cn1cc(/C=C/C(=O)c2ccc([N+](=O)[O-])cc2)c2ccccc21` [Compound 5f, (E)-3-(1-Methyl-1H-indol-3-yl)-1-(4-nitrophenyl)prop-2-en-1-one] has an IC50 [1] of 9.31 µM, a melting point of 278 °C and an IC50 [2] of 10.9 µM.

Compound `Cc1ccc(C(=O)/C=C/c2cn(C)c3ccccc23)cc1` [Compound 5c, (E)-3-(1-Methyl-1H-indol-3-yl)-1-p-tolylprop-2-en-1-One] has an IC50 [1] of 12.3 µM, a melting point of 240 °C and an IC50 [2] of 13.1 µM.

`Cn1cc(-c2cc(-c3ccc(Cl)cc3)nc3c2c(=O)[nH]c(=O)n3C)c2ccccc21` [Compound 7c, 7-(4-Chlorophenyl)-1-methyl-5-(1-methyl-1H-indol-3-yl)pyrido[2,3-d]pyrimidine-2,4(1H,3H)-dione] showed an IC50 [1] of 31.1 µM, a melting point of 385 to 389 °C and an IC50 [2] of 21.1 µM.

Work on `COc1ccc(-c2cc(-c3cn(C)c4ccccc34)c3c(=O)n(C)c(=O)n(C)c3n2)cc1OC` [Compound 7e, 7-(3,4-Dimethoxyphenyl)-1,3-dimethyl-5-(1-methyl-1H-indol-3-yl)pyrido[2,3-d]pyrimidine-2,4(1H,3H)-dione] yielded an IC50 [1] of 8.06 µM, a melting point of 340 to 341 °C and an IC50 [2] of 6.79 µM.

Work on `COc1ccc(C(=O)/C=C/c2cn(C)c3ccccc23)cc1` [Compound 5b, (E)-1-(4-Methoxyphenyl)-3-(1-methyl-1H-indol-3-yl) prop-2-en-1-one] yielded an IC50 [1] of 10.3 µM, a melting point of 254 °C and an IC50 [2] of 7.42 µM.

— PMC4139024, “Synthesis and In Vitro Inhibition Effect of New Pyrido[2,3-d]pyrimidine Derivatives on Erythrocyte Carbonic Anhydrase I and II” (BioMed Research International, 2014)
